Reference: patent publication US11180504B2 (ORCHID PHARMA LTD., priority 2016, dated 2021)
Values after ≈ are worked out from the molar mass of the structure shown. Read-outs that look alike come from different tables or passages of the source.

Columns and labels:
[1] = system: carbapenem sensitive Escherichia coli; experiment: MIC by broth micro-dilution (CLSI), carbapenem sensitive E. coli; format: cell-based; settings: Escherichia coli
[2] = system: methicillin-sensitive Staphylococcus aureus; experiment: MIC by broth micro-dilution (CLSI), methicillin-sensitive S. aureus; format: cell-based; settings: Staphylococcus aureus, ATCC 29213 / MSSA
[3] = system: carbapenemase producing K. pneumoniae; experiment: MIC by broth micro-dilution (CLSI), carbapenemase producing K. pneumoniae; format: cell-based, Klebsiella pneumoniae; settings: Klebsiella pneumoniae
[4] = system: extended spectrum β lactamase (ESBL) SHV18 producing Klebsiella pneumoniae; experiment: MIC by broth micro-dilution (CLSI), ESBL SHV18 producing K. pneumoniae; format: cell-based; settings: Klebsiella pneumoniae, ATCC700603, 22 h
[5] = system: carbapenem sensitive Pseudomonas aeruginosa; experiment: MIC by broth micro-dilution (CLSI), carbapenem sensitive P. aeruginosa; format: cell-based; settings: Pseudomonas aeruginosa
[6] = ATCC25922, ESBL −ve E. coli ATCC25922, read-out: MIC
[7] = MSSA S. aureus ATCC29213, read-out: MIC
[8] = ATCCBAA1705, KPC-2 K. pneumoniae ATCC BAA-1705, read-out: MIC
[9] = ESBL +ve (SHV-18) K. pneumoniae ATCC700603, read-out: MIC
[10] = ATCC27853, Meropenem susceptible P. aeruginosa ATCC27853, read-out: MIC

| Structure (SMILES) | MIC [1, 6] [µg/mL] | MIC [2, 7] [µg/mL] | MIC [3, 8] [µg/mL] | MIC [4, 9] [µg/mL] | MIC [5, 10] [µg/mL] | MIC ([1]; ATCC25922) [µg/mL] | MIC [2] [µg/mL] | MIC ([3]; ATCCBAA1705) [µg/mL] | MIC [4] [µg/mL] | MIC ([5]; ATCC27853) [µg/mL] |
| --- | --- | --- | --- | --- | --- | --- | --- | --- | --- | --- |
| C[C@@H](NC(=O)C(F)F)[C@H]1C(=O)N2C(C(=O)O)=C(S[C@@H]3CN[C@H](C(=O)NCCO)C3)[C@H](C)[C@H]12 [Example 104] | 0.5 (≈ 1.05 µM) | 4 (≈ 8.39 µM) | 4 (≈ 8.39 µM) | 1 (≈ 2.1 µM) | 128 (≈ 269 µM) |  |  |  |  |  |
| CNCC(=O)N[C@H](C)[C@H]1C(=O)N2C(C(=O)O)=C(S[C@@H]3CN[C@H](Cn4cc(CN)nn4)C3)[C@H](C)[C@H]12 [Example 181] | 8 (≈ 16.2 µM) | > 128 | 64 (≈ 130 µM) | > 128 | 128 (≈ 260 µM) |  |  |  |  |  |
| C[C@@H](NC(=O)C(F)F)[C@H]1C(=O)N2C(C(=O)O)=C(S[C@@H]3CNC(CN4CCCC4)C3)[C@H](C)[C@H]12 (stereo partly shown) [Example 81] | 1 (≈ 2.12 µM) | 1 (≈ 2.12 µM) | 8 (≈ 16.9 µM) | 8 (≈ 16.9 µM) | 64 (≈ 135 µM) |  |  |  |  |  |
| CCS(=O)(=O)CC(=O)N[C@H](C)[C@H]1C(=O)N2C(C(=O)O)=C(S[C@@H]3CN[C@H](C(=O)N(C)C)C3)[C@H](C)[C@H]12 [Example 63] | 1 to 2 (≈ 1.94 to 3.87 µM) | 8 to 16 (≈ 15.5 to 31 µM) | 8 to 16 (≈ 15.5 to 31 µM) | 16 to 32 (≈ 31 to 61.9 µM) | > 128 |  |  |  |  |  |
| C[C@@H](NS(=O)(=O)C(F)(F)F)[C@H]1C(=O)N2C(C(=O)O)=C(S[C@@H]3CN[C@H](C(=O)N4CC[C@@H](O)C4)C3)[C@H](C)[C@H]12 [Example 34] | 1 (≈ 1.8 µM) | 4 (≈ 7.19 µM) | 8 (≈ 14.4 µM) | 8 (≈ 14.4 µM) | 128 (≈ 230 µM) |  |  |  |  |  |
| CNCC(=O)NO[C@H]1CCN(C(=O)[C@@H]2C[C@H](SC3=C(C(=O)O)N4C(=O)[C@H]([C@@H](C)NC(=O)C(F)F)[C@H]4[C@H]3C)CN2)C1 [Example 151] | 2 (≈ 3.4 µM) | 4 (≈ 6.8 µM) | 8 (≈ 13.6 µM) | 16 (≈ 27.2 µM) | 32 (≈ 54.4 µM) |  |  |  |  |  |
| CNCC(=O)N[C@H](C)[C@H]1C(=O)N2C(C(=O)O)=C(S[C@@H]3CN[C@H](C(=O)N4C[C@H](N)[C@@H](N)C4)C3)[C@H](C)[C@H]12 [Example 200] | 2 (≈ 3.92 µM) | 128 (≈ 251 µM) | 4 (≈ 7.85 µM) | 8 (≈ 15.7 µM) | 4 (≈ 7.85 µM) |  |  |  |  |  |
| C[C@@H](NC(=O)C(F)F)[C@H]1C(=O)N2C(C(=O)O)=C(S[C@@H]3CN[C@H](C(=O)N4CC[C@H](NC(=O)N(C)C)C4)C3)[C@H](C)[C@H]12 [Example 118] | 0.5 (≈ 0.873 µM) | 4 (≈ 6.99 µM) | 8 (≈ 14 µM) | 2 (≈ 3.49 µM) | 64 (≈ 112 µM) |  |  |  |  |  |
| C[C@@H](NC(=O)C(F)F)[C@H]1C(=O)N2C(C(=O)O)=C(Sc3nc(-c4ccncc4)cs3)[C@H](C)[C@H]12 [Example 88] | 128 (≈ 266 µM) | 0.25 (≈ 0.52 µM) | > 128 | > 128 | > 128 |  |  |  |  |  |
| COC(=O)N[C@H]1CCN(C(=O)[C@@H]2C[C@H](SC3=C(C(=O)O)N4C(=O)[C@H]([C@@H](C)NC(=O)C(F)F)[C@H]4[C@H]3C)CN2)C1 [Example 123] | 0.5 (≈ 0.894 µM) | 2 (≈ 3.57 µM) | 4 (≈ 7.15 µM) | 2 (≈ 3.57 µM) | 64 (≈ 114 µM) |  |  |  |  |  |
| C[C@@H](NC(=O)C(F)F)[C@H]1C(=O)N2C(C(=O)O)=C(S[C@@H]3CN[C@H](C(=O)N4CC[C@H](O)C4)C3)[C@H](C)[C@H]12 [Example 77] | 0.5 to 1 (≈ 0.995 to 1.99 µM) | 4 to 8 (≈ 7.96 to 15.9 µM) | 4 (≈ 7.96 µM) | 1 (≈ 1.99 µM) | 32 to 64 (≈ 63.7 to 127 µM) |  |  |  |  |  |
| CCCNCC(=O)N[C@H](C)[C@H]1C(=O)N2C(C(=O)O)=C(S[C@@H]3CN[C@H](C(=O)N(C)C)C3)[C@H](C)C12 (stereo partly shown) [Example 139] | 1 (≈ 2.08 µM) | 32 (≈ 66.4 µM) | 4 (≈ 8.31 µM) | 4 (≈ 8.31 µM) | 32 (≈ 66.4 µM) |  |  |  |  |  |
| CCCCS(=O)(=O)N[C@H](C)[C@H]1C(=O)N2C(C(=O)O)=C(S[C@@H]3CN[C@H](C(=O)N(C)C)C3)[C@H](C)[C@H]12 [Example 18] | 4 (≈ 7.96 µM) | 8 (≈ 15.9 µM) | 8 (≈ 15.9 µM) | 64 (≈ 127 µM) | 32 (≈ 63.7 µM) |  |  |  |  |  |
| CNCC(=O)N[C@H](C)[C@H]1C(=O)N2C(C(=O)O)=C(S[C@@H]3CN[C@H](C(=O)N4CCN(CCN)CC4)C3)[C@H](C)[C@H]12 [Example 221] | 2 (≈ 3.72 µM) | 32 (≈ 59.5 µM) | 2 (≈ 3.72 µM) | 2 (≈ 3.72 µM) | 4 (≈ 7.44 µM) |  |  |  |  |  |
| COCc1cn([C@H](C)[C@H]2C(=O)N3C(C(=O)O)=C(S[C@@H]4CN[C@H](C(=O)N5CC[C@@H](N)C5)C4)[C@H](C)[C@H]23)nn1 [Example 232] | 2 (≈ 3.85 µM) | 2 (≈ 3.85 µM) | 8 (≈ 15.4 µM) | 8 (≈ 15.4 µM) | > 128 |  |  |  |  |  |
| C[C@@H](NC(=O)C(F)(F)C(F)(F)F)[C@H]1C(=O)N2C(C(=O)O)=C(S[C@@H]3CN[C@H](C(=O)N(C)C)C3)[C@H](C)[C@H]12 [Example 87] | 1 (≈ 1.89 µM) | 2 (≈ 3.78 µM) | 8 (≈ 15.1 µM) | 8 (≈ 15.1 µM) | 64 (≈ 121 µM) |  |  |  |  |  |
| CCS(=O)(=O)N[C@H](C)[C@H]1C(=O)N2C(C(=O)O)=C(S[C@@H]3CN[C@H](C(=O)N(C)C)C3)[C@H](C)[C@H]12 [Example 10] | 1 (≈ 2.11 µM) | 16 (≈ 33.7 µM) | 4 (≈ 8.43 µM) | 2 (≈ 4.21 µM) | > 128 |  |  |  |  |  |
| CNCC(=O)N[C@H](C)[C@H]1C(=O)N2C(C(=O)O)=C(S[C@@H]3CN[C@H](C(=O)N4CCC(NC(=O)CN)CC4)C3)[C@H](C)[C@H]12 [Example 193] | 4 (≈ 7.07 µM) | 64 (≈ 113 µM) | 4 (≈ 7.07 µM) | 8 (≈ 14.1 µM) | 8 (≈ 14.1 µM) |  |  |  |  |  |
| C[C@@H](NC(=O)C(F)F)[C@H]1C(=O)N2C(C(=O)O)=C(S[C@@H]3CN[C@H](C(=O)N4CCC(C(=O)O)CC4)C3)[C@H](C)[C@H]12 [Example 37] | 1 (≈ 1.84 µM) | 16 (≈ 29.4 µM) | 16 (≈ 29.4 µM) | 1 (≈ 1.84 µM) | > 128 |  |  |  |  |  |
| C[C@@H](NC(=O)C(F)F)[C@H]1C(=O)N2C(C(=O)O)=C(SCCNC(=O)OC(C)(C)C)[C@H](C)[C@H]12 [Example 93] | 128 (≈ 276 µM) | 16 (≈ 34.5 µM) | > 128 | > 128 | > 128 |  |  |  |  |  |
| CCOC(=O)CN[C@H](C)[C@H]1C(=O)N2C(C(=O)O)=C(S[C@@H]3CN[C@H](C(=O)N(C)C)C3)[C@H](C)[C@H]12 [Example 98] | 8 (≈ 17.1 µM) | 32 (≈ 68.3 µM) | 32 (≈ 68.3 µM) | 32 (≈ 68.3 µM) | > 128 |  |  |  |  |  |
| C[C@@H](NC(=O)C(F)F)[C@H]1C(=O)N2C(C(=O)O)=C(S[C@@H]3CN[C@H](C(=O)N4CC[C@@H](ON)C4)C3)[C@H](C)[C@H]12 [Example 164] | 0.25 (≈ 0.483 µM) | 1 (≈ 1.93 µM) | 4 (≈ 7.73 µM) | 1 (≈ 1.93 µM) | 32 (≈ 61.8 µM) |  |  |  |  |  |
| C[C@@H](NCC(=O)O)[C@H]1C(=O)N2C(C(=O)O)=C(S[C@@H]3CN[C@H](C(=O)N(C)C)C3)[C@H](C)[C@H]12 [Example 99] | 64 (≈ 145 µM) | 128 (≈ 291 µM) | 64 (≈ 145 µM) | 16 (≈ 36.3 µM) | 16 (≈ 36.3 µM) |  |  |  |  |  |
| C[C@@H](NS(=O)(=O)C(F)(F)F)[C@H]1C(=O)N2C(C(=O)O)=C(S[C@@H]3CN[C@H](CNS(N)(=O)=O)C3)[C@H](C)[C@H]12 [Example 19] | 1 (≈ 1.81 µM) | 1 (≈ 1.81 µM) | > 128 | 8 (≈ 14.5 µM) | 128 (≈ 232 µM) |  |  |  |  |  |
| COP(=O)(CC(=O)N[C@H](C)[C@H]1C(=O)N2C(C(=O)O)=C(S[C@@H]3CN[C@H](C(=O)N(C)C)C3)[C@H](C)[C@H]12)OC [Example 91] |  |  |  |  |  | 4 (≈ 7.51 µM) | 16 (≈ 30 µM) | 32 (≈ 60.1 µM) | 32 (≈ 60.1 µM) | > 128 |
| C[C@H]([C@H]1C(=O)N2C(C(=O)O)=C(SC3CN[C@H](C(=O)N4CCNCC4)C3)[C@H](C)[C@H]12)n1cc(CF)nn1 (stereo partly shown) [Example 207] | 2 (≈ 3.94 µM) | 2 (≈ 3.94 µM) | 8 (≈ 15.8 µM) | 8 (≈ 15.8 µM) | > 128 |  |  |  |  |  |
